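Cells were grown in 96-well plates and exposed to each compound for 48 hours at five concentrations; endpoints were interpolated linearly between bracketing concentrations, or set to the highest concentration if not reached. GI50 is the concentration that inhibits growth by half.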 Active and inactive are the calls of the source. Cut-off read from the data, not from the text of the source: active = GI50 up to about 1.1 µM and inactive = higher.
How the values were obtained:
Test in all cases: NCI-60 cell line screen, 48 h
[1] = tested on: 786-0
[2] = tested on: A498
[3] = tested on: A549
[4] = tested on: ACHN
[5] = tested on: CAKI-1
[6] = tested on: CCRF-CEM
[7] = tested on: DLD-1
[8] = tested on: DMS-114
[9] = tested on: DMS-273
[10] = tested on: EKVX
[11] = tested on: HCT-116
[12] = tested on: HL-60
[13] = tested on: HOP-62
[14] = tested on: HOP-92
[15] = tested on: HT-29
[16] = tested on: IGROV-1
[17] = tested on: K562
[18] = tested on: KM-20L2
[19] = tested on: KM12
[20] = tested on: LXFL 529
[21] = tested on: M14
[22] = tested on: M19-MEL
[23] = tested on: MOLT-4
[24] = tested on: Malme-3M
[25] = tested on: NCI-H226
[26] = tested on: NCI-H23
[27] = tested on: NCI-H460
[28] = tested on: NCI-H522
[29] = tested on: OVCAR-3
[30] = tested on: OVCAR-4
[31] = tested on: OVCAR-5
[32] = tested on: OVCAR-8
[33] = tested on: RXF 393
[34] = tested on: SF-268
[35] = tested on: SF-295
[36] = tested on: SF-539
[37] = tested on: SK-MEL-28
[38] = tested on: SK-MEL-2
[39] = tested on: SK-MEL-5
[40] = tested on: SK-OV-3
[41] = tested on: SN12C
[42] = tested on: SNB-19
[43] = tested on: SNB-75
[44] = tested on: SNB-78
[45] = tested on: SR
[46] = tested on: SW-620
[47] = tested on: TK-10
[48] = tested on: U-251
[49] = tested on: UACC-257
[50] = tested on: UACC-62
[51] = tested on: UO-31
[52] = tested on: BT-549
[53] = tested on: COLO 205
[54] = tested on: DU-145
[55] = tested on: HCC 2998
[56] = tested on: HCT-15
[57] = tested on: Hs-578T
[58] = tested on: LOX IMVI
[59] = tested on: MCF7
[60] = tested on: MDA-MB-231
[61] = tested on: MDA-MB-435
[62] = tested on: MDA-N
[63] = tested on: NCI/ADR-RES
[64] = tested on: PC-3
[65] = tested on: RPMI-8226
[66] = tested on: T47D

## CC1C[C@@]2(c3ccccc3)C(=O)CCC[C@H]2N1 (some centres undefined)
[1]
  GI50: > 100 µM (inactive)
[2]
  GI50: > 100 µM (inactive)
[3]
  GI50: > 100 µM (inactive)
[4]
  GI50: > 100 µM (inactive)
[5]
  GI50: > 100 µM (inactive)
[6]
  GI50: > 100 µM (inactive)
[7]
  GI50: > 100 µM (inactive)
[8]
  GI50: > 100 µM (inactive)
[9]
  GI50: > 100 µM (inactive)
[10]
  GI50: > 100 µM (inactive)
[11]
  GI50: > 100 µM (inactive)
[12]
  GI50: > 100 µM (inactive)
[13]
  GI50: > 100 µM (inactive)
[14]
  GI50: 29.6 µM (inactive)
[15]
  GI50: > 100 µM (inactive)
[16]
  GI50: > 100 µM (inactive)
[17]
  GI50: > 100 µM (inactive)
[18]
  GI50: > 100 µM (inactive)
[19]
  GI50: > 100 µM (inactive)
[20]
  GI50: > 100 µM (inactive)
[21]
  GI50: > 100 µM (inactive)
[22]
  GI50: > 100 µM (inactive)
[23]
  GI50: > 100 µM (inactive)
[24]
  GI50: 16.9 µM (inactive)
[25]
  GI50: > 100 µM (inactive)
[26]
  GI50: > 100 µM (inactive)
[27]
  GI50: > 100 µM (inactive)
[28]
  GI50: > 100 µM (inactive)
[29]
  GI50: > 100 µM (inactive)
[30]
  GI50: > 100 µM (inactive)
[31]
  GI50: > 100 µM (inactive)
[32]
  GI50: > 100 µM (inactive)
[33]
  GI50: > 100 µM (inactive)
[34]
  GI50: > 100 µM (inactive)
[35]
  GI50: > 100 µM (inactive)
[36]
  GI50: > 100 µM (inactive)
[37]
  GI50: > 100 µM (inactive)
[38]
  GI50: > 100 µM (inactive)
[39]
  GI50: > 100 µM (inactive)
[40]
  GI50: > 100 µM (inactive)
[41]
  GI50: > 100 µM (inactive)
[42]
  GI50: > 100 µM (inactive)
[43]
  GI50: > 100 µM (inactive)
[44]
  GI50: > 100 µM (inactive)
[45]
  GI50: > 100 µM (inactive)
[46]
  GI50: > 100 µM (inactive)
[47]
  GI50: > 100 µM (inactive)
[48]
  GI50: > 100 µM (inactive)
[49]
  GI50: > 100 µM (inactive)
[50]
  GI50: > 100 µM (inactive)
[51]
  GI50: > 100 µM (inactive)

## CSc1c(C#N)c(O)nc(N)c1C(=O)Nc1ccc(Cl)cc1
[1]
  GI50: 7.36 µM (inactive)
[2]
  GI50: 16.6 µM (inactive)
[3]
  GI50: 13.4 µM (inactive)
[4]
  GI50: 3.18 µM (inactive)
[52]
  GI50: 24.5 µM (inactive)
[5]
  GI50: 12.6 µM (inactive)
[6]
  GI50: 30.3 µM (inactive)
[53]
  GI50: 10.6 µM (inactive)
[54]
  GI50: 17.5 µM (inactive)
[10]
  GI50: 14.9 µM (inactive)
[55]
  GI50: 11.5 µM (inactive)
[11]
  GI50: 5.45 µM (inactive)
[56]
  GI50: 11.5 µM
[12]
  GI50: 13.2 µM (inactive)
[13]
  GI50: 16 µM (inactive)
[14]
  GI50: 21.7 µM (inactive)
[15]
  GI50: 22.2 µM (inactive)
[57]
  GI50: 31 µM (inactive)
[16]
  GI50: 23.2 µM (inactive)
[17]
  GI50: 4.54 µM (inactive)
[19]
  GI50: 7.96 µM (inactive)
[58]
  GI50: 1.74 µM (inactive)
[21]
  GI50: 5.2 µM (inactive)
[59]
  GI50: 8.63 µM (inactive)
[60]
  GI50: 15.6 µM (inactive)
[61]
  GI50: 3.55 µM (inactive)
[62]
  GI50: 12 µM (inactive)
[23]
  GI50: 18.8 µM (inactive)
[24]
  GI50: 26.5 µM (inactive)
[25]
  GI50: 28 µM (inactive)
[26]
  GI50: 16.8 µM (inactive)
[27]
  GI50: 6.32 µM (inactive)
[28]
  GI50: 14.1 µM (inactive)
[63]
  GI50: 17.4 µM (inactive)
[29]
  GI50: 14.9 µM (inactive)
[30]
  GI50: 31.4 µM (inactive)
[31]
  GI50: 33 µM (inactive)
[32]
  GI50: 19.1 µM (inactive)
[64]
  GI50: 13.2 µM (inactive)
[65]
  GI50: 11.2 µM (inactive)
[33]
  GI50: 23.6 µM (inactive)
[34]
  GI50: 19.5 µM (inactive)
[35]
  GI50: 11 µM (inactive)
[36]
  GI50: 16.4 µM (inactive)
[37]
  GI50: 14.7 µM (inactive)
[38]
  GI50: 6.25 µM (inactive)
[39]
  GI50: 10.4 µM (inactive)
[40]
  GI50: 23.3 µM (inactive)
[41]
  GI50: 23.8 µM (inactive)
[42]
  GI50: 31.8 µM (inactive)
[43]
  GI50: 37.8 µM (inactive)
[45]
  GI50: > 69.2 µM (inactive)
[46]
  GI50: 5.65 µM (inactive)
[66]
  GI50: 8.38 µM (inactive)
[47]
  GI50: 29.3 µM (inactive)
[48]
  GI50: 19.5 µM (inactive)
[49]
  GI50: 6.78 µM (inactive)
[50]
  GI50: 0.853 µM (active)
[51]
  GI50: 11.2 µM (inactive)

## COc1cc2c(c3c1c(=O)c1ccccc1n3C)C=CC1(CCCCC1)O2
[1]
  GI50: 1.04 µM (active)
[2]
  GI50: 5.96 µM (inactive)
[3]
  GI50: 0.446 µM (active)
[4]
  GI50: 3.13 µM (inactive)
[52]
  GI50: 4.84 µM (inactive)
[5]
  GI50: 0.764 µM (active)
[6]
  GI50: 2.55 µM (inactive)
[53]
  GI50: 4.34 µM (inactive)
[54]
  GI50: > 9.1 µM (inactive)
[10]
  GI50: > 7.94 µM (inactive)
[55]
  GI50: 4.59 µM (inactive)
[11]
  GI50: 2.88 µM (inactive)
[56]
  GI50: 3.08 µM
[12]
  GI50: 3.88 µM (inactive)
[13]
  GI50: 2.3 µM (inactive)
[14]
  GI50: 3.24 µM (inactive)
[15]
  GI50: 2.61 µM (inactive)
[57]
  GI50: 2.54 µM (inactive)
[16]
  GI50: 2.15 µM (inactive)
[17]
  GI50: 1.56 µM (inactive)
[19]
  GI50: 0.603 µM (active)
[58]
  GI50: 3.75 µM (inactive)
[21]
  GI50: 2.68 µM (inactive)
[59]
  GI50: 2.31 µM (inactive)
[60]
  GI50: 4.83 µM (inactive)
[61]
  GI50: 2.38 µM (inactive)
[62]
  GI50: 2.96 µM (inactive)
[23]
  GI50: 3.11 µM (inactive)
[24]
  GI50: 3.43 µM (inactive)
[25]
  GI50: 8.07 µM (inactive)
[26]
  GI50: > 7.67 µM (inactive)
[27]
  GI50: 3.82 µM (inactive)
[28]
  GI50: 3.96 µM (inactive)
[63]
  GI50: 3.65 µM (inactive)
[29]
  GI50: 3.53 µM (inactive)
[30]
  GI50: 4.65 µM (inactive)
[31]
  GI50: 5.73 µM (inactive)
[32]
  GI50: 4.81 µM (inactive)
[64]
  GI50: 3.78 µM (inactive)
[65]
  GI50: 0.455 µM (active)
[33]
  GI50: 0.822 µM (active)
[34]
  GI50: 4.48 µM (inactive)
[35]
  GI50: 1.44 µM (inactive)
[36]
  GI50: 1.57 µM (inactive)
[37]
  GI50: 4.8 µM (inactive)
[38]
  GI50: 3.35 µM (inactive)
[39]
  GI50: 2.15 µM (inactive)
[40]
  GI50: 5.53 µM (inactive)
[41]
  GI50: 6.28 µM (inactive)
[42]
  GI50: > 7.18 µM (inactive)
[43]
  GI50: 1.29 µM (inactive)
[45]
  GI50: 1.95 µM (inactive)
[46]
  GI50: 6.92 µM (inactive)
[66]
  GI50: 4.41 µM (inactive)
[47]
  GI50: > 8.95 µM (inactive)
[48]
  GI50: 4.03 µM (inactive)
[49]
  GI50: > 7.73 µM (inactive)
[50]
  GI50: 4.14 µM (inactive)
[51]
  GI50: 0.1 µM (active)
